Literature values in patent US20260256672A1, “COMPOSITION COMPRISING SKIN CARE ACTIVE INGREDIENT OR CELLULOSE COMPOUND” (L'OREAL, priority 2022, published 2026).

Conditions: base-ten logarithm of apparent octan-1-ol/water partition coefficient

Compound | Log P
O=C1O[C@H]([C@@H](O)CO)C(O)=C1O[C@H]1O[C@H](CO)[C@@H](O)[C@H](O)[C@H]1O [Ascorbyl Glucoside] | −3.4
CC(O)C[C@H]1OC[C@@H](O)[C@H](O)[C@H]1O (stereo partly drawn) [Hydroxypropyl Tetrahydropyrantriol, C-beta-D-xylopyranoside-2-hydroxpropane] | −1.5
NC(=O)c1cccnc1 [Niacinamide] | −0.37
NC[C@H]1CC[C@H](C(=O)O)CC1 [Tranexamic Acid] | −1.6
